Results published in patent publication US8022235B2, “Compositions of phospholipid ether boronic acids and esters and methods for their synthesis and use” (Cellectar, Inc., priority 2007, dated 2011).
Entries after “also recorded” stand apart in the source; their conditions may differ.

Legend:
rat mammary tumor = assay: Biodistribution of 125I-NM324 in rat mammary tumor model; assay type: in vivo
[1] = biological target: T1, PLC isolated from Bacillus cereus (Bacillus cereus, UniProt P09598); assay: PLC substrate assay; assay type: biochemical
T1 construct: PLC isolated from Bacillus cereus; endogenous in cells; host or cells: Bacillus cereus
T1 sequence (P09598 39-283 limits assumed): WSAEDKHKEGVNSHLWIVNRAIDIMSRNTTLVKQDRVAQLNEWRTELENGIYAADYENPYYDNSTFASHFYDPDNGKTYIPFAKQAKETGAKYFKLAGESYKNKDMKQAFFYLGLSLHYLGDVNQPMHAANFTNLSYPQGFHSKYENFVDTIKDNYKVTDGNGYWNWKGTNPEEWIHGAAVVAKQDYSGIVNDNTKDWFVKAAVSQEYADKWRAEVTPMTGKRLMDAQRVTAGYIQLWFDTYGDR
Protocol: (§1) Formal metabolism studies were conducted on several PLE analogs including NM324, the predecessor of NM404. In these studies, each agent was examined to determine its ability to serve as substrates for enzymes associated with PLE metabolism. Three major enzymatic pathways are involved in the metabolism of PLE. O-Alkyl glycerol monooxygenase (AGMO) is responsible for cleavage of the alkyl ether linkage at C-1 to form either the long chain fatty alcohol or subsequently, the corresponding fatty acid. Phospholipases C (PLC) and D (PLD), on the other hand, give rise to the glycerol or phosphatidic acid products, respectively.

serum proteins = details: cited from earlier work
[2] = test system: carrageenan-induced granulomas; assay: Uptake into inflammatory lesions; parameters: species or system rats; details: rat, in vivo
From the text: The utility of tumor tracers like ^67Ga-citrate and ^18F-FDG is limited by their lack of specificity to distinguish neoplasm from inflammation. Further, accumulation of FDG in the urine interferes with visualization of pelvic and abdominal abnormalities. This lack of specificity is a significant clinical issue in patients with cancer. […] Some exemplary embodiments of PLE analogs discussed herein are illustrated in FIG. 1. […] Although FDG-PET has paved the way for hybrid imaging, its lack of tumor cell specificity will always limit its diagnostic efficacy. New molecularly targeted agents, like NM404, which display universal tumor uptake and selective retention regardless of location, as well as selectivity for malignant tumor cells and not inflammatory or hyperplastic lesions, represents a significant improvement in the detection, targeting and characterization of cancer.

animal tumor models [3] = details: radioiodinated analogs, xenograft and spontaneous tumor rodent models, previous reports; cited from earlier work
human lung cancer = assay: Clinical evaluation of NM324, scintigraphy; assay type: in vivo; details: for tumor uptake / detection: scintigraphy in lung cancer patients
From the text: FIG. 10 is a scintigraphic image of the anterior chest of Patient 03 acquired at 1, 2, and 6 days after iv administration of 1 mCi ^131I-NM324.
Based upon this work, NM404 [18-(4-iodophenyl)-octadecyl phosphocholine] emerged due to its enhanced ability to localize in tumor, its increased metabolic clearance from the liver, and its longer plasma half-life.

[4] = biological target: T2, O-Alkyl glycerol monooxygenase (AGMO) (Homo sapiens, UniProt Q6ZNB7); assay: Microsomal AGMO substrate assay; assay type: biochemical; details: microsomal enzyme preparation
T2 construct: Using a microsomal AGMO enzyme preparation; from tissue
T2 sequence (Q6ZNB7 whole entry, species assumed): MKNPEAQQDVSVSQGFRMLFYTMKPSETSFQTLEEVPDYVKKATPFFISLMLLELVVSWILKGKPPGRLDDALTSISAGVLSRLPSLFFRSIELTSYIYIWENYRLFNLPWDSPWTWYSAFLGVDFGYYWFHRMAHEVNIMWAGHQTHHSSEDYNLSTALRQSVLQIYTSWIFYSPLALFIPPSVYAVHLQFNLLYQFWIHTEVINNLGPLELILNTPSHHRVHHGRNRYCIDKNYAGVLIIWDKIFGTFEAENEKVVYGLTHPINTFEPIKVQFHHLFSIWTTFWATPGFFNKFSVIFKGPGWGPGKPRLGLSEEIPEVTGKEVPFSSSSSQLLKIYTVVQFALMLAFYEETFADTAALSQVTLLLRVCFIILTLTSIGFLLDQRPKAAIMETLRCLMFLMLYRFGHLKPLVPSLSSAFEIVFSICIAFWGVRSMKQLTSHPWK
Protocol: as §1

Blood plasma kinetics = assay: Blood plasma kinetics; parameters: species or system rats; details: rat, in vivo
animal tumor models [5] = assay: Imaging and biodistribution across animal tumor models (general statements); details: mammary, prostate, squamous cell carcinoma, ovarian, colorectal, melanoma
From the text: See, for example, U.S. patent application Ser. Nos. 10/906,687, 11/177,740, 11/316,620 and 11/382,645. Due to deficiencies in metabolic phospholipase enzymes in the membranes of malignant tumor cells, the prevailing hypothesis for this specificity is that phospholipid ether analogs become trapped exclusively in tumor cell membranes because of their inability to become metabolized and eliminated by the cancerous cell. Thus, the differential clearance rates of phospholipid ethers from normal cells versus neoplastic tumor cells are responsible for this specificity.
The reason for the retention of PLE and analogs in cancer cells remains unknown. Without being held to any particular theory, however, the prevailing hypothesis, is that radioiodinated PLE and APC analogs become trapped in tumor cell membranes because of their inability to be metabolized and eliminated. On the other hand, such lipid molecules are metabolized and cleared by normal tissues, including the liver.
These PLE analogs are specifically designed to incorporate aromatic radioiodine in order to render the molecule stable towards in vivo deiodination.

Prostate MatLyLu = assay: Gamma camera scintigraphy screen in Dunning R3327 (MAT LyLu) prostate cancer model; assay type: in vivo, Copenhagen rats; details: radioiodinated analog 30-40 μCi, images incl. 24 and 48 hours post injection
Protocol: The avidity of PLE and APC analogs to localize in tumors was evaluated in several animal models. The PC-3 model represents a human tumor cell line that was used to determine the target (tumor) to non-target ratio of NM404 and NM412 in head to head comparison in order to select a candidate for an initial human pharmacokinetic trial in prostate cancer patients. The MatLyLu (Dunning R3327 rat) model, a rat prostate tumor line, was used specifically to screen 9 specific analogs prior to entering them into control for dosimetry and tumor-bearing animals for determining tumor/background ratios. Finally, the Walker-256 carcinosarcoma model was used for quantitative tissue distribution purposes.
In order to expedite the screening process and minimize the number of tumor bearing animals utilized in multiple time point tissue distribution studies, new radioiodinated homologs were imaged by gamma camera scintigraphy in the rat Dunning […] (MAT LyLu strain) prostate cancer model. Thus, male Copenhagen rats received a subcutaneous injection of MAT LyLu cells (1×10^6 cells) in the thigh 10-14 days prior to injection of the radioiodinated PLE analogs (30-40 μCi) in 2% Tween-20 solution. Gamma camera images were obtained at multiple time points including 24 and 48 hours post injection. […] Tissue distribution of radioactivity in rats bearing Walker-256 carcinosarcoma was assessed at various time intervals following intravenous administration of the radioiodinated chain length homologs. The first group of compounds that was tested included three alkylphosphocholines: a shorter chain analog with seven carbons NM396 and two analogs with a longer chain length, 13 (NM397, C15 alkyl chain length) and 1 (NM404, C18 alkyl chain length).
In order to decrease liver uptake and prolong the plasma phase, the inventors examined 9 structural analogs of NM324 to identify agents that would display improved tumor-to-background tissue ratios with decreased liver uptake. The new PLE analogs were synthesized and radiolabeled with ^125I for initial image analysis in Copenhagen rats bearing Dunning R3327 prostate tumors. […] NM404 was therefore selected to undergo further imaging and biodistribution analysis in a variety of animal-tumor models.

[6] = test system: human PC-3 prostate tumor xenografts; assay: Scintigraphy, microPET and tissue distribution in PC-3 tumor model; assay type: in vivo, SCID mice; details: advanced metastatic PC-3, 48 h post iv injection
[7] = test system: non-small cell lung cancer (NSCLC); assay: Initial human pharmacokinetic evaluation, planar gamma-camera scintigraphy; assay type: in vivo; details: <1 mCi injection, preliminary, n=3
From the text: FIG. 6A-C images of lung cancer patient, posterior whole body planar nuclear medicine image (A) 4 days after iv administration of ^131I-NM404 (0.8 mCi) to a patient with non small cell lung cancer (6 cm dia., arrow). Lung tumor is easily detected in corresponding axial (B) and coronal (C) computed tomography (CT) scans;
In preparation for human clinical trials, unlabeled NM404 was subjected to independent (University of Buffalo Toxicology Research Center) acute toxicity evaluation at 1200 times the anticipated imaging mass dose in rats and rabbits. […] Due to its selective tumor uptake and retention properties in a variety of rodent tumor models and subsequent excellent safety profile in rats and rabbits, NM404 was selected to undergo initial human pharmacokinetic evaluation in non-small cell lung cancer (NSCLC) patients. Patients underwent planar gamma-camera scintigraphy after receiving an injection of ^131I-NM404 (<1 mCi).

[8] = excess boron ingestion; cited from earlier work

C[N+](C)(C)CCOP(=O)([O-])OCCCCCCCCCCCCc1cccc([125I])c1 [Compound 125I-NM324]
tumor-to-blood ratio (rat mammary tumor; 96 hours): 8.6
time of maximum tumor-to-normal tissue ratios (rat mammary tumor; rat, in vivo): 96 h

[3H]C(CCCCCC)C([3H])CCCCCCCC(=O)O[C@H](COC(=O)CCCCCCCCCCCCCCC)COP(=O)([O-])OCC[N+](C)(C)C (stereo partly drawn) [DPPC, 1-palmitoyl-2-[^3H]-palmitoyl-L-3-phosphatidylcholine, reference compound]
hydrolysis by PLC [1]: underwent significant hydrolysis

CCCCCCCCCCCCCCCCCCOCC(COP(=O)([O-])OCC[N+](C)(C)C)OC (stereo not drawn) [ET-18-OCH3]
ether lipid bound to HDL (serum proteins): about 6%
ether lipid bound to albumin (serum proteins): 71%

O=C([O-])CC(O)(CC(=O)[O-])C(=O)[O-].[Ga+3] [Gallium citrate, reference compound]
uptake and retention in granulomas [2]: concentrate significantly in the granulomatous lesions

COC(COCCCCCCCCCCCCc1cccc([125I])c1)COP(=O)([O-])OCC[N+](C)(C)C (stereo not drawn) [NM294]
selective retention by tumors (animal tumor models [3]): selectively retained by a variety of human and animal tumors

C[N+](C)(C)CCOP(=O)([O-])OCCCCCCCCCCCCc1cccc(I)c1 [NM324, 12-(m-iodophenyl)dodecyl phosphocholine]
uptake and retention in granulomas [2]: no uptake and retention
liver uptake (human lung cancer; initial human pharmacokinetic studies): high liver uptake values; also recorded: unacceptable accumulation in liver tissue; also recorded: images were complicated by high liver radioactivity
tumor uptake / detection (human lung cancer): detected tumors
substrate for AGMO [4]: not a substrate
hydrolysis by PLC [1]: not hydrolyzed
elimination half life time in plasma (Blood plasma kinetics): 2.43 h
tumor visualization by scintigraphy (animal tumor models [5]): successfully visualized
selective retention by tumors (animal tumor models [3]): selectively retained by a variety of human and animal tumors

COC(COCCCCCCCCCCCCCCCCCCc1ccc(I)cc1)COP(=O)([O-])OCC[N+](C)(C)C (stereo not drawn) [NM410]
gamma camera imaging findings (tumor, liver, abdomen) (Prostate MatLyLu): high hepatic uptake, significant abdominal accumulation and retention or poor tumor uptake and retention; also recorded: high radioactivity levels in the liver and abdomen with little to no uptake of the agent into tumors

C[N+](C)(C)CCOP(=O)([O-])OCCCCCCCCCCCCCCCCCCc1ccc([124I])cc1 [^124I-NM404]
microPET uptake in primary tumor and lymph nodes [6]: significant uptake

C[N+](C)(C)CCOP(=O)([O-])OCCCCCCCCCCCCc1cccc([131I])c1 [^131I-NM324]
tumor uptake / detection (human lung cancer): Uptake is seen in the left lingular lung cancer (T) with increasing tumor-to-background ratios over time

C[N+](C)(C)CCOP(=O)([O-])OCCCCCCCCCCCCCCCCCCc1ccc([131I])cc1 [^131I-NM404]
tumor uptake and retention [7]: tumor uptake and prolonged retention in primary lung tumors

OB(O)O [boric acid]
excretion [8]: excreted rapidly in the urine
time to disappearance [8]: ≤ 4 days
